Patent publication US20200148803A1, “POLYMERIZABLE MULTIFUNCTIONAL ANTIMICROBIAL QUATERNARY AMMONIUM MONOMERS, METHODS OF SYNTHESIS, AND USES THEREOF” (ADA Foundation, priority 2018, published 2020)

How the values were obtained:
[1] = test system: human gingival fibroblasts (HGF); assay: Cellular metabolic activity (CellTiter AQueous One Solution Reagent), HGF cells; format: cell-based; details: for effect on metabolic activity of HGF cells: two-fold serial dilutions, 24 h and 72 h
Procedure: (§1) Immortalized human gingival fibroblasts (HGF) were purchased from Applied Biological Materials, Inc. (Richmond, British Columbia, Canada). […] For experiments, cells were obtained from a subconfluent stock culture.
(§2) Direct contact cytotoxicity testing was conducted as previously described^7, 8. Briefly, cells were exposed to two-fold serial dilutions of AMadh series monomers or AMsil series monomers to approximate the maximum possible exposure, (Table 9). Table 9 illustrates biocompatibility testing using maximum possible monomer exposure (mmol/L), assuming 7% mass fraction in the restorative with a maximum of 2% leaching. To account for multiplicity and variable size of restorations, a two- and four-fold greater dilution was also included in the testing. After 24 and 72 h, cells were assessed for cell viability using the LIVE/DEAD® Viability/Cytotoxicity kit (Life Technologies, Corp., Grand Island, N.Y.). Cellular metabolic activity was subsequently assessed using the CellTiter® AQueous One Solution Reagent (Promega, Corp., Madison, Wis.). Negative controls were without the novel monomer and/or cells. Mean+standard error was obtained from five independent replicates tested in triplicate.

[2] = test system: mouse subcutaneous connective tissue fibroblasts (NCTC clone 929, CCL1); assay: Direct contact cytotoxicity, LIVE/DEAD viability, CCL1 cells; format: cell-based
[3] = test system: CCL1 cells; assay: Cellular metabolic activity (CellTiter AQueous One Solution Reagent), CCL1 cells; format: cell-based; details: for effect of monomer concentration on CCL1 metabolic activity: two-fold serial dilutions, 24 h and 72 h
[4] = Degree of vinyl conversion (DVC) by near infra-red spectra of copolymer beams; format: physicochemical
Procedure: (§3) Experimental resin (UPE) was formulated from the commercially available monomers urethane dimethacrylate (UDMA, 50.91% w/w), polyethylene glycol extended urethane dimethacrylate (PEG-U, 18.18% w/w), and ethyl 2-(hydroxymethyl)acrylate (EHMA, 30.91% w/w). A conventional visible light initiator system comprised of camphorquinone (0.2% w/w) and ethyl-4-N,N-dimethylamino benzoate (4EDMAB, 0.8% w/w) was utilized. […] Copolymer specimens (beams) were prepared by depositing UPE (UPE resin control) and AM-UPE resins into glass molds (2 mm×2 mm×25 mm) and photopolymerizing them with a dental curing light (Triad 2000, Dentsply, Charlotte, N.C., USA) for 2 minutes from two sides. Copolymer specimens (pellets) were prepared by depositing UPE and AM-UPE resins into a stainless-steel mold (1 mm×16 mm), sandwiched between two sheets of Mylar film and two glass slides and photopolymerized in the same manner as the beam samples. Degree of vinyl conversion (DVC) of UPE and AM-UPE resins was determined utilizing beam samples by collecting the near infra-red (NIR) spectra (Nexus 670, ThermoFisher, Madison, Wis., USA) before and 24 h after polymerization and calculating the reduction in absorption band at 6165 cm^−1 corresponding to the vinyl (C═C—H) overtone signal. By maintaining a constant specimen thickness, a need for an invariant internal standard was eliminated. The DVC was calculated as: […]
(§4) where Area(polymer) and Area(monomer) correspond to the areas under 6165 cm^−1 peaks after and before the polymerization, respectively. After DVC analysis, flexural strength (FS) and elastic modulus (E) of beam specimen were determined employing the Universal Testing Machine (Instron 5500R, Instron Corp., Canton, Mass., USA). The load was applied (at cross-head speed of 1 mm/min) to the center of a specimen positioned on a test device with supports 20 mm apart. The FS and E of the specimens (three replicates/experimental group) was calculated as instructed in the ISO4049:2009 document. Changes in hydrophilicity/hydrophobicity of UPE resins due to the introduction of AM monomers were assessed on pellet specimen by sessile drop contact angle (CA) measurements (drop shape analyzer DSA100, Krüss GmbH, Hamburg, Germany). Following the deposition of 4 μL water droplets on the resin pellets, the pellets were imaged after 1 min resting time with a camera at the points of intersection (three-phase contact points) between the drop contour and the projection of the surface (baseline). The CA water values were calculated employing the Krüss Advance software. At least four repetitive measurements were performed in each group. Analysis of variance (ANOVA) and Newman-Keuls multiple paired comparisons (at 95% confidence level) were used to analyze the experimental data as a function of resin composition and establish a statistical significance of differences between the experimental groups (WINKS 7.0.9, TexaSoft, Cedar Hills, Tex., USA).

[5] = test system: human gingival fibroblasts (HGF); assay: Direct contact cytotoxicity, LIVE/DEAD viability, HGF cells; format: cell-based; details: for effect of exposure time on HGF live cells, difference of means: 24 h vs 72 h, regardless of concentration; for effect of monomer concentration on HGF cell viability: two-fold serial dilutions, 24 h and 72 h
Procedure: as §1, §2

[6] = Sessile drop water contact angle (CA) on resin pellets; format: physicochemical
Procedure: as §3, §4

## C=C(C)C(=O)OCC[N+](C)(C)CCCCCC(=O)O.[Br-] [AMadh1, 5-carboxy-N-(2-(methacryloyloxy)ethyl)-N,N-dimethylpentan-1-aminium bromide]
[1]
  effect on metabolic activity of HGF cells: Neither AMadh1 concentration nor time of exposure significantly affected the metabolic activity
[2]; 10.6 mmol/L, 72 h exposure
  decrease of mean number of live CCL1 cells compared to all lower concentrations: ≤ 2.5 fold
[2]; 24 h exposure, ≤10.6 mmol/L
  effect of monomer concentration on CCL1 cell viability: insignificant
[2]; two-fold serial dilutions, 24 h and 72 h
  effect of monomer concentration on CCL1 cell viability: exerted a main effect
[3]
  effect of monomer concentration on CCL1 metabolic activity: A main effect
[4]; 10 mass percent in UPE resin
  increase of DVC relative to UPE resin control: 2%
[4]; 20 mass percent in UPE resin
  increase of DVC relative to UPE resin control: 3%
[5]; 0.08 mmol/L, 24 h
  dead HGF cells: 102.1 ± 0.9 % control
  live HGF cells: 92.8 ± 11.3 % control
[5]; 0.08 mmol/L, 72 h
  dead HGF cells: 99.5 ± 8.0 % control
  live HGF cells: 121.6 ± 12.6 % control
[5]; 0.17 mmol/L, 24 h
  dead HGF cells: 99.1 ± 1.7 % control
  live HGF cells: 77.3 ± 15.9 % control
[5]; 0.17 mmol/L, 72 h
  dead HGF cells: 98.8 ± 9.1 % control
  live HGF cells: 95.1 ± 14.4 % control
[5]; 0.33 mmol/L, 24 h
  dead HGF cells: 103.5 ± 3.7 % control
  live HGF cells: 110.4 ± 9.7 % control
[5]; 0.33 mmol/L, 72 h
  dead HGF cells: 102.0 ± 12.8 % control
  live HGF cells: 116.8 ± 12.3 % control
[5]; 0.66 mmol/L, 24 h
  dead HGF cells: 101.5 ± 2.5 % control
  live HGF cells: 107.4 ± 4.7 % control
[5]; 0.66 mmol/L, 72 h
  dead HGF cells: 92.1 ± 8.7 % control
  live HGF cells: 133.0 ± 8.4 % control
[5]; 1.33 mmol/L, 24 h
  dead HGF cells: 110.9 ± 7.1 % control
  live HGF cells: 121.8 ± 8.2 % control
[5]; 1.33 mmol/L, 72 h
  dead HGF cells: 89.5 ± 8.9 % control
  live HGF cells: 107.6 ± 6.9 % control
[5]; 2.65 mmol/L, 24 h
  dead HGF cells: 100.4 ± 1.0 % control
  live HGF cells: 111.7 ± 10.0 % control
[5]; 2.65 mmol/L, 72 h
  dead HGF cells: 104.0 ± 17.1 % control
  live HGF cells: 107.8 ± 4.0 % control
[5]; 5.3 mmol/L, 24 h
  dead HGF cells: 102.7 ± 2.6 % control
  live HGF cells: 108.8 ± 14.8 % control
[5]; 5.3 mmol/L, 72 h
  dead HGF cells: 88.9 ± 6.8 % control
  live HGF cells: 130.5 ± 9.2 % control
[5]; 10.6 mmol/L, 24 h
  dead HGF cells: 100.9 ± 1.7 % control
  live HGF cells: 92.4 ± 10.8 % control
[5]; 10.6 mmol/L, 72 h
  dead HGF cells: 90.3 ± 11.6 % control
  live HGF cells: 103.7 ± 7.8 % control
[5]
  effect of exposure time on HGF live cells, difference of means: 10.4%
  effect of monomer concentration on HGF cell viability: monomer concentration affected
[5]; ≤10.6 mmol/L, 24 h or 72 h, % control
  number of live HGF cells in monomer-treated groups, median of least square means: 111.7%
[6]; 10 and 20 mass percent in UPE resin
  effect on hydrophobic-hydrophilic properties of the copolymer: did not alter the hydrophobic-hydrophilic properties

## C=C(C)C(=O)OCC[N+](C)(C)CCCCCCCCCCC(=O)O.[Br-] [AMadh2, 10-carboxy-N-(2-(methacryloyloxy)ethyl)-N,N-dimethyldecan-1-aminium bromide]
[1]; 24 h vs 72 h
  time of exposure decreased HGF metabolic activity, difference of means: 19.01
[1]
  effect on metabolic activity of HGF cells: not affected by the level of AMadh2
[2]; 8.8 mmol/L, 72 h exposure
  percentage of live CCL1 cells, fold lower compared to concentrations ≤4.4 mmol/L: at least 10 fold
[2]; 8.8 mmol/L, independent of time
  least squares mean of live CCL1 cells, fold lower than at lower concentrations: approx. 2 fold
[2]; ≤2.2 mmol/L (24 h) and ≤0.28 mmol/L (72 h)
  percent live CCL1 cells compared to control group (no monomer): increased
[2]; ≤8.8 mmol/L
  effect of concentration on the number of dead CCL1 cells: not statistically different
[3]; 24 h, 8.8 mm/L
  CCL1 cell metabolic activity: reduced
[3]; 72 h
  CCL1 cell metabolic activity: markedly reduced
[3]
  effect of monomer concentration on CCL1 metabolic activity: exerted an effect
[5]
  effect of exposure time on HGF live cells, difference of means: ~16%
  effect of monomer concentration on HGF cell viability: no significant effect
[6]; 10 mass percent in UPE resin
  effect on hydrophobic-hydrophilic properties of the copolymer: a shift towards the lower CA values
  reduction of water CA relative to UPE resin control: 18 °
[6]; 20 mass percent in UPE resin
  effect on hydrophobic-hydrophilic properties of the copolymer: did not alter the hydrophobic-hydrophilic properties
